Measurements from US8476255B2, “Histone deacetylase inhibitors” (Orchid Chemicals & Pharmaceuticals Limited, priority 2007, dated 2013).

Key:
NCIH460 (lung) cells = experiment: Anti-cancer screen (MTT), NCIH460; assay type: cell-based; conditions: Homo sapiens, NCI-H460, NCIH460, 48 hours, MTT; for GI50: read-out: Cell growth inhibition NCIH460 (Lung) GI50; for LC50: read-out: Cell growth inhibition NCIH460 (Lung) LC50; for IC (TGI): read-out: Cell growth inhibition NCIH460 (Lung) TGI
Protocol: (§1) Experimental drugs were screened for anti-cancer activity in three cell lines using five concentrations for each compound. The cell lines —HCT 116 (colon), NCIH460 (lung) and U251 (glioma) were maintained in DMEM containing 10% fetal bovine serum. 96-well microtiter plates are inoculated with cells in 100 μL of cell suspension (5×10^4 cells/mL) for 24 hours at 37° C., 5% CO2, 95% air and 100% relative humidity. A separate plate with these cell lines is also inoculated to determine cell viability before the addition of the compounds (T0).
(§2) Following 24-hours incubation, test compounds were added to the 96 well plates. Each plate contains one of the above cell lines and the following samples in triplicate: five different dilutions (0.01, 0.1, 1, 10 and 100 μM) of four test compounds, appropriate dilutions of a cytotoxic standard and growth medium (untreated) wells. Test compounds were dissolved in DMSO to prepare 20 mM stock solutions on the day of drug addition and serial dilutions were carried out in complete growth medium at 2× strength such that 100 μL added to wells gave final concentrations (0.01, 0.1, 1, 10 and 100 μM) in the well. SAHA was used as standard drug in these experiments.
(§3) For T0 measurement, 24 hours after seeding the cells, 20 μL of 3-(4,5-dimethyl-2-thiazolyl)-2,5-diphenyl-2H-tetrazolium (MTT) solution per well was added to the ‘T0’ plate and incubated for 3 hours at 37° C. in a CO2 incubator. The plate containing cells and test compounds was treated similarly after 48 hours of incubation. After 3 hours of MTT addition, well contents were aspirated carefully followed by addition of 150 μL DMSO per well. Plates were agitated to ensure dissolution of the formazan crystals in DMSO and absorbance was read at 570 nm (A570).
(§4) (Mosmann T. Rapid colorimetric assay for cellular growth and survival: application to proliferation and cytotoxicity assays. J Immunol Methods 1983; 65(1-2): 55-63; Anne Monks et al. Feasibility of high-flux anticancer drug screen using a diverse panel of cultured human tumor cell lines”. JNCI, Vol. 83, No. 11, 1991).

HCT 116 (colon) cells = experiment: Anti-cancer screen (MTT), HCT 116; assay type: cell-based; conditions: Homo sapiens, HCT-116, HCT116, 48 hours, MTT; for GI50: read-out: Cell growth inhibition HCT116 (Colon) GI50; for CC50: read-out: Cell growth inhibition HCT116 (Colon) LC50; for IC (TGI): read-out: Cell growth inhibition HCT116 (Colon) TGI
Protocol: as §1, §2, §3, §4

U251 (glioma) cells = experiment: Anti-cancer screen (MTT), U251; assay type: cell-based; conditions: Homo sapiens, U-251, U251, 48 hours, MTT; for GI50: read-out: Cell growth inhibition U251 (Glioma) GI50; for LC50 (concentration giving 50% net cell kill relative to the time-zero cell count): read-out: Cell growth inhibition U251 (Glioma) LC50; for IC (TGI): read-out: Cell growth inhibition U251 (Glioma) TGI
Protocol: as §1, §2, §3, §4

[1] = tested on: NCIH460, HCT116 and U251 cells; experiment: Anti-cancer screen, mean GI50 over cell lines; assay type: cell-based; conditions: mean over cell lines; read-out: Cell growth inhibition Mean GI50
Protocol: as §1, §2, §3, §4

[2] = tested on: HDAC (Mouse Liver Extract); experiment: HDAC inhibition assay using Boc-Lys(Ac)-AMC substrate; assay type: biochemical; conditions: mouse liver enzyme
Protocol: Inhibition of HDAC has been implicated to modulate transcription and to induce apoptosis or differentiation in cancer cells. The fluorometric assay provides a fast and fluorescence based method that eliminates radioactivity, extractions or chromatography, as used in traditional assays. The assay is based on two steps. First, the HDAC fluorometric substrate, which comprises an acetylated lysine side chain, is incubated with a sample containing HDAC activity (Mouse Liver Extract). Deacetylation of the substrate sensitizes the substrate, in the second step; treatment with the Trypsin stop solution produces a fluorophore that can be easily analyzed using fluorescence plate reader. Assay was done in 96-well black microplate and total volume of the assay was […]. […] The plate was pre-incubated at 37° C. for 5 minutes. […] The plate was incubated at 37° C. for 30 min. The reaction was stopped by adding 100 μL, of Trypsin stop solution and incubating at 37° C. for 15-30 min. Measuring the fluorescence at excitation wavelength of 360 nm and emission wavelength of 460 nm monitored the release of AMC. Buffer alone and substrate alone served as blank. […] (Dennis Wegener et al, Anal. Biochem, 321, 2003, 202-208).

Row | SMILES | GI50 (NCIH460 (lung) cells) [µM] | LC50 (NCIH460 (lung) cells) [µM] | IC (TGI) (NCIH460 (lung) cells) [µM] | GI50 (HCT 116 (colon) cells) [µM] | CC50 (HCT 116 (colon) cells) [µM] | IC (TGI) (HCT 116 (colon) cells) [µM] | GI50 (U251 (glioma) cells) [µM] | LC50 (concentration giving 50% net cell kill relative to the time-zero cell count) (U251 (glioma) cells) [µM] | IC (TGI) (U251 (glioma) cells) [µM] | GI50 [1] [µM] | HDAC inhibition % (1 μM) [2] [%] | HDAC inhibition % (10 μM) [2] [%] | IC50 [2] [µM]
1 | COC(=O)c1ccc(/C=C(/C(=O)NCc2ccc(C(=O)Nc3ccccc3N)cc2)c2cccs2)cc1 [Compound 36, N-(2-Aminophenyl)-4-((3-(4-carbmethoxyphenyl)-2-(thiophen-2-yl)acrylamido)methyl)benzamide] | 20 | > 100 | > 100 | 0.7 | > 100 | 35 | 18 | 90 | 50 | 12.9 | 30.5 | 31.9 | –
2 | CSc1ccc(/C=C(/C(=O)NCc2ccc(C(=O)Nc3ccccc3N)cc2)c2ccccc2F)cc1 [Compound 24, N-(2-Aminophenyl)-4-((3-(4-methylthiophenyl)-2-(2-fluorophenyl)acrylamido)methyl)benzamide] | 5 | – | 32 | 3.8 | > 100 | 12 | 8.5 | – | 30 | 5.8 | 41.3 | 51.4 | –
3 | COc1ccc(/C=C(/C(=O)NCc2ccc(C(=O)NO)cc2)c2ccc(F)cc2)cc1 [Compound 53, 4-((2-(4-Fluorophenyl)-3-(4-methoxyphenyl)acrylamido)methyl)-N-hydroxybenzamide] | 5.5 | 49 | 20 | 3 | 51 | 17 | 2.9 | 30 | 7 | 3.8 | 88.6 | 94.4 | 0.04
4 | COC(=O)c1ccc(/C=C(/C(=O)NCc2ccc(C(=O)Nc3ccccc3N)cc2)c2cccc(Cl)c2)cc1 [Compound 33, N-(2-Aminophenyl)-4-((3-(4-carbmethoxyphenyl)-2-(3-chlorophenyl)acrylamido)methyl)benzamide] | 0.2 | 60 | 11 | 0.02 | 80 | 2 | 0.2 | 4.5 | 0.7 | 0.1 | 34.4 | 35.0 | 7.8
5 | COc1ccc(/C=C(/C(=O)NCc2ccc(C(=O)Nc3ccccc3N)cc2)c2ccccc2)cc1 [Compound 2, N-(2-Aminophenyl)-4-((3-(4-methoxyphenyl)-2-(phenyl)acrylamido)methyl)benzamide] | 2.9 | > 100 | 8.2 | 4.4 | > 100 | 9.4 | 7.6 | > 100 | 39 | 5 | 2.3 | 6.8 | –
6 | CSc1ccc(/C=C(/C(=O)NCc2ccc(C(=O)Nc3ccccc3N)cc2)c2ccc(C)cc2)cc1 [Compound 25, N-(2-Aminophenyl)-4-((3-(4-methylthiophenyl)-2-(4-methylphenyl)acrylamido)methyl)benzamide] | 19 | 100 | 58 | 7.5 | 90 | 48 | 6.5 | 89 | 37 | 11 | 63.8 | 68.1 | –
7 | CSc1ccc(/C=C(/C(=O)NCc2ccc(C(=O)Nc3ccccc3N)cc2)c2ccc(F)cc2)cc1 [Compound 6, N-(2-Aminophenyl)-4-((3-(4-methylthiophenyl)-2-(4-fluorophenyl)acrylamido)methyl)benzamide] | 8.8 | 90 | 47 | 4.8 | 95.8 | 46 | < 0.01 | 83.2 | 22 | 4.5 | 4.2 | 25.8 | –
8 | Nc1ccccc1NC(=O)c1ccc(CNC(=O)/C(=C/c2ccc([N+](=O)[O-])s2)c2ccc(F)cc2)cc1 [Compound 7, N-(2-Aminophenyl)-4-((3-(5-nitrothiophen-2-yl)-2-(4-fluorophenyl)acrylamido)methyl)benzamide] | 6.2 | 73.8 | 26.5 | 4.5 | 71.2 | 9.6 | 17 | 76 | 34.5 | 9.2 | 12.4 | 19.4 | –
9 | Nc1ccccc1NC(=O)c1ccc(CNC(=O)/C(=C/c2ccccc2F)c2ccc(Cl)cc2)cc1 [Compound 3, N-(2-Aminophenyl)-4-((3-(2-fluorophenyl)-2-(4-chlorophenyl)acrylamido)methyl)benzamide] | 0.6 | > 100 | 52 | 3.2 | 100 | 10 | 16 | 85 | 39 | 6.6 | 5.1 | 16.4 | –
10 | CS(=O)(=O)c1ccc(/C=C(/C(=O)NCCCCCC(=O)NO)c2ccc(F)cc2)cc1 [Compound 87, 6-(2-(4-Fluorophenyl)-3-(4-methylsulfonylphenyl)acrylamido)-N-hydroxy hexanamide] | > 100 | > 100 | > 100 | 44 | > 100 | 88 | 20 | > 100 | > 100 | > 100 | 43.6 | 81.6 | –
11 | Nc1ccccc1NC(=O)c1ccc(CNC(=O)/C(=C/c2ccnc3ccccc23)c2ccc(F)cc2)cc1 [Compound 22, N-(2-Aminophenyl)-4-((3-(quinolin-4-yl)-2-(4-fluorophenyl)acrylamido)methyl)benzamide] | 7.6 | > 100 | 80 | 7.9 | > 100 | 70 | – | – | – | 7.8 | 32.9 | 56.1 | 3.2
